How the values were obtained:
Type in all cases: cell-based
[1] = molecular target: T1, human TLR7 (Homo sapiens, UniProt Q9NYK1); assay: TLR7 inhibition reporter assay (HEK-Blue cells, SEAP reporter, gardiquimod stimulation); conditions: HEK-Blue cells overexpressing human TLR7, SEAP reporter, gardiquimod 7.5 μM
T1 construct: host or cells: HEK-Blue cells
T1 sequence (Q9NYK1 27-1049): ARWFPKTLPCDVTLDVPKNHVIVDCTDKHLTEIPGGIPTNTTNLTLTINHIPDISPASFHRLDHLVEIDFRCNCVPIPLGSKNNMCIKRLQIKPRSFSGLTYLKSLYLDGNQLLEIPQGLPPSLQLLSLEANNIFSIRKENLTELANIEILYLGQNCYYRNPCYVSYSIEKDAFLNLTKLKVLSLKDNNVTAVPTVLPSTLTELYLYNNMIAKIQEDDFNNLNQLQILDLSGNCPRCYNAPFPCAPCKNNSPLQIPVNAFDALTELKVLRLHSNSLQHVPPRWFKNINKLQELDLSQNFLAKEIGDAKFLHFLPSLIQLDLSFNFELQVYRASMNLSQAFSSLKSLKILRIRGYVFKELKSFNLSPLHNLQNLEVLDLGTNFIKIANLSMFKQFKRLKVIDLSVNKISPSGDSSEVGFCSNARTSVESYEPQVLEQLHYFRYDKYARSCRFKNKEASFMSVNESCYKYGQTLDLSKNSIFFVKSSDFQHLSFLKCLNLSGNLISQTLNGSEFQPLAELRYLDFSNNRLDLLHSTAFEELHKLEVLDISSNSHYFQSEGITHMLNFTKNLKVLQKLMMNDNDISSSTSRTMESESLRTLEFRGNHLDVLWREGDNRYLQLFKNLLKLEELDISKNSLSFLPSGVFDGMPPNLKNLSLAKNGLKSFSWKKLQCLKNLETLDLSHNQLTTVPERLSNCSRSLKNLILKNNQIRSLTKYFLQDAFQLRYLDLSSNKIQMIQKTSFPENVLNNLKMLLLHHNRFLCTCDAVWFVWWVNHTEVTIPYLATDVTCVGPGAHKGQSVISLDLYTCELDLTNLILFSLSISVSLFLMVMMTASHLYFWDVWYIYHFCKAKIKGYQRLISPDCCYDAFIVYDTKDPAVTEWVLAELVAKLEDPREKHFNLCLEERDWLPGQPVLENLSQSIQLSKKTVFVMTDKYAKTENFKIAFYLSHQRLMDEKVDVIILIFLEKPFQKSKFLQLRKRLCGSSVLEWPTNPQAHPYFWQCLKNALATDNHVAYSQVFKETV
How it was run: (§1)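 Percent inhibition is derived from SEAP signal, scaled between agonist-plus-DMSO wells and wells given a known inhibitor. Test compounds (0.05 nM–50 μM) are pre-incubated 30 min at room temperature before agonist addition (TLR7: 7.5 μM gardiquimod; TLR8: 15.9 μM R848; TLR9: 5 nM ODN2006) and 22 h culture at 37 °C.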

[2] = molecular target: T2, human TLR9 (Homo sapiens, UniProt Q9NR96); assay: TLR9 inhibition reporter assay (HEK-Blue cells, SEAP reporter, ODN2006 stimulation); conditions: HEK-Blue cells overexpressing human TLR9, SEAP reporter, ODN2006 5 nM
T2 construct: host or cells: HEK-Blue cells
T2 sequence (Q9NR96 26-1032): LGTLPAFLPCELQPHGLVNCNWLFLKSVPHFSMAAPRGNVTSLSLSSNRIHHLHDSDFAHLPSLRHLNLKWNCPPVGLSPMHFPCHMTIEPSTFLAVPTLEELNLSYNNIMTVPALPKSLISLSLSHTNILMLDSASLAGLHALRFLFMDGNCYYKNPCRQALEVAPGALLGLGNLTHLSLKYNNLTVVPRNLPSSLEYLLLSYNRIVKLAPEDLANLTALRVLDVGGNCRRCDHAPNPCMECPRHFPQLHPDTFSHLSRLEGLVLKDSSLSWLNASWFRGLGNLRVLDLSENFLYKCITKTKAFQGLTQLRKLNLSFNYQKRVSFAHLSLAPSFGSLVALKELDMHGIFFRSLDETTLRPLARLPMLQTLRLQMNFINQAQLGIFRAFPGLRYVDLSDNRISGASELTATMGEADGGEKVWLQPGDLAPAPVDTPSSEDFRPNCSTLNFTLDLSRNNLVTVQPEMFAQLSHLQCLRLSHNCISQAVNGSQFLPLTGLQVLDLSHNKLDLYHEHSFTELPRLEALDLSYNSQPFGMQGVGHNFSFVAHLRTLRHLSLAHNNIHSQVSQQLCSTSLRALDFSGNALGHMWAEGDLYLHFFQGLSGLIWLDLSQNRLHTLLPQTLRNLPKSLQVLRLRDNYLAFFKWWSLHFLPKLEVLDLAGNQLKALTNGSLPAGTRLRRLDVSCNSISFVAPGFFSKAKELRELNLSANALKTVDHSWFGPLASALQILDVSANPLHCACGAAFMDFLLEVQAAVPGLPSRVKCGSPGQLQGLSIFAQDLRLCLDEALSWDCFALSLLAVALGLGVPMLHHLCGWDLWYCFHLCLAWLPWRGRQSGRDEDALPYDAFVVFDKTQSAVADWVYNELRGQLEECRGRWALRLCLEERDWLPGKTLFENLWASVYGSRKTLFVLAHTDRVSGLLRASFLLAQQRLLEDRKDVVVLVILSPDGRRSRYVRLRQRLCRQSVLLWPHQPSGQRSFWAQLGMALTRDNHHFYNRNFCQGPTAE
How it was run: as §1

[3] = molecular target: T3, human TLR8 (Homo sapiens, UniProt Q9NR97); assay: TLR8 inhibition reporter assay (HEK-Blue cells, SEAP reporter, R848 stimulation); conditions: HEK-Blue cells overexpressing human TLR8, SEAP reporter, R848 15.9 μM
T3 construct: host or cells: HEK-Blue cells
T3 sequence (Q9NR97 27-1041): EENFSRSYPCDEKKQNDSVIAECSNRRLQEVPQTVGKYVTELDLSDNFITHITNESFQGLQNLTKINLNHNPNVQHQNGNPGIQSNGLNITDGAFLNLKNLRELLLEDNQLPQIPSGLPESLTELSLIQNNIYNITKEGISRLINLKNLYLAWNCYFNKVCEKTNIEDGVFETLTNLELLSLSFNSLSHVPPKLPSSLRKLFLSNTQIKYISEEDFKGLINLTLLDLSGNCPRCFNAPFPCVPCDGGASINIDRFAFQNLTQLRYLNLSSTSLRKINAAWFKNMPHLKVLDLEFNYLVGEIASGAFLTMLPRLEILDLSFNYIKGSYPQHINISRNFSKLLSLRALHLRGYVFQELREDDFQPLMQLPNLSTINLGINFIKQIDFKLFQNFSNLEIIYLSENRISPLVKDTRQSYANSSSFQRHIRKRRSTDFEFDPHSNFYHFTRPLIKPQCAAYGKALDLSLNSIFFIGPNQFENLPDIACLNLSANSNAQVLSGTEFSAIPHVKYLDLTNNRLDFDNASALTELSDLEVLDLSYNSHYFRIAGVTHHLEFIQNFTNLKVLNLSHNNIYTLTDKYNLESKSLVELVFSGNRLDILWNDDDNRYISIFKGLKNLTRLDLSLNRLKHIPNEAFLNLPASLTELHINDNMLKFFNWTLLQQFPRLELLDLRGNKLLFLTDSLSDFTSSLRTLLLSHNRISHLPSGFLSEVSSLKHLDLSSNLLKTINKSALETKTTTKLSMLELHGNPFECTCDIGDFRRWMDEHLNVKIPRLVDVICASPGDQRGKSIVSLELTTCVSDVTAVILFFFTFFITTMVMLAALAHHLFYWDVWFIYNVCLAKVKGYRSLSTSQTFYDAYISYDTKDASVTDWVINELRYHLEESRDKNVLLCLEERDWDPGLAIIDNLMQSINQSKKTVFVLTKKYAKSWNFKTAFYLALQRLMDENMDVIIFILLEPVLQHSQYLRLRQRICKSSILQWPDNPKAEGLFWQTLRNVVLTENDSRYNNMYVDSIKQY
How it was run: as §1

SMILES: CNC1CCC(c2ccc3[nH]c(-c4cc(OC)c5ncnn5c4)c(C(C)C)c3c2)CC1 (single isomer, unassigned) [Example 146, 4-(3-isopropyl-2-(8-methoxy-[1,2,4]triazolo[1,5-a]pyridin-6-yl)-1H-indol-5-yl)-N-methylcyclohexanamine]
- IC50 [1]: 0.00079 µM
- IC50 [2]: 1.62 µM
- IC50 [3]: 0.0037 µM

SMILES: COCCN(C)C1CCC(c2ccc3[nH]c(-c4cn5ncnc5c(C)c4C)c(C(C)C)c3c2)CC1 (single isomer, unassigned) [Example 152, 4-(2-(7,8-dimethyl-[1,2,4]triazolo[1,5-a]pyridin-6-yl)-3-isopropyl-1H-indol-5-yl)-N-(2-methoxyethyl)-N-methylcyclohexanamine]
- IC50 [1]: 0.004 µM
- IC50 [2]: 2.85 µM
- IC50 [3]: 0.0034 µM

SMILES: COCCN(C)C1CCC(c2ccc3[nH]c(-c4cn5ncnc5c(C)c4C)c(C(C)C)c3c2)CC1 (single isomer, unassigned) [Example 153, 4-(2-(7,8-dimethyl-[1,2,4]triazolo[1,5-a]pyridin-6-yl)-3-isopropyl-1H-indol-5-yl)-N-(2-methoxyethyl)-N-methylcyclohexanamine]
- IC50 [1]: 0.0005 µM
- IC50 [2]: 2.14 µM
- IC50 [3]: 0.00072 µM

SMILES: Cc1cc(-c2[nH]c3ccc(C4CCC(C(=O)N5CCN(C)CC5)CC4)cc3c2C(C)C)cn2ncnc12 (single isomer, unassigned) [Example 156]
- IC50 [1]: 0.00082 µM
- IC50 [2]: 3.64 µM
- IC50 [3]: 0.0067 µM

SMILES: Cc1cc(-c2[nH]c3ccc(C4CCC(C(=O)N5CCN(C)CC5)CC4)cc3c2C(C)C)cn2ncnc12 (single isomer, unassigned) [Example 157]
- IC50 [1]: 0.00038 µM
- IC50 [2]: 6.25 µM
- IC50 [3]: 0.0025 µM

SMILES: Cc1cc(-c2[nH]c3ccc(C4CCC(C(=O)N5CCCCC5)CC4)cc3c2C(C)C)cn2ncnc12 (single isomer, unassigned) [Example 159]
- IC50 [1]: 1.69 µM
- IC50 [2]: 28.6 µM
- IC50 [3]: 1.85 µM

SMILES: Cc1cc(-c2[nH]c3ccc(C4CCC(C(=O)N5CCCCC5)CC4)cc3c2C(C)C)cn2ncnc12 (single isomer, unassigned) [Example 160]
- IC50 [1]: 0.009 µM
- IC50 [2]: 30.3 µM
- IC50 [3]: 0.154 µM

SMILES: CNC(=O)CNC1CCC(c2ccc3[nH]c(-c4cc(C)c5ncnn5c4)c(C(C)C)c3c2)CC1 (single isomer, unassigned) [Example 162, 2-((4-(3-isopropyl-2-(8-methyl-[1,2,4]triazolo[1,5-a]pyridin-6-yl)-1H-indol-5-yl)cyclohexyl)amino)-N-methylacetamide]
- IC50 [1]: 0.00056 µM
- IC50 [2]: 2.11 µM
- IC50 [3]: 0.0012 µM

SMILES: CNC(=O)CNC1CCC(c2ccc3[nH]c(-c4cc(C)c5ncnn5c4)c(C(C)C)c3c2)CC1 (single isomer, unassigned) [Example 163, 2-((4-(3-isopropyl-2-(8-methyl-[1,2,4]triazolo[1,5-a]pyridin-6-yl)-1H-indol-5-yl)cyclohexyl)amino)-N-methylacetamide]
- IC50 [1]: 0.00063 µM
- IC50 [2]: 2.24 µM
- IC50 [3]: 0.00064 µM

SMILES: Cc1cc(-c2[nH]c3ccc(C4CCC(C)(O)CC4)cc3c2C(C)C)cc(C)n1 (single isomer, unassigned) [Example 169]
- IC50 [1]: 0.029 µM
- IC50 [2]: 41.3 µM
- IC50 [3]: 0.293 µM

SMILES: Cc1cc(-c2[nH]c3ccc(C4CCC(O)CC4)cc3c2C(C)C)cc(C)n1 (single isomer, unassigned) [Example 171, 4-(2-(2,6-dimethylpyridin-4-yl)-3-isopropyl-1H-indol-5-yl)cyclohexanol]
- IC50 [1]: 0.027 µM
- IC50 [2]: > 50 µM
- IC50 [3]: 0.212 µM

SMILES: Cc1cc(-c2[nH]c3ccc(C4CCC(O)CC4)cc3c2C(C)C)cc(C)n1 (single isomer, unassigned) [Example 172, 4-(2-(2,6-dimethylpyridin-4-yl)-3-isopropyl-1H-indol-5-yl)cyclohexanol]
- IC50 [1]: 0.008 µM
- IC50 [2]: 15.8 µM
- IC50 [3]: 0.035 µM

SMILES: Cc1cc(-c2[nH]c3ccc(C4CCC(N(C)CC(=O)N(C)C)CC4)cc3c2C(C)C)cn2ncnc12 (single isomer, unassigned) [Example 177, 2-((4-(3-isopropyl-2-(8-methyl-[1,2,4]triazolo[1,5-a]pyridin-6-yl)-1H-indol-5-yl)cyclohexyl)(methyl)amino)-N,N-dimethylacetamide]
- IC50 [1]: 0.005 µM
- IC50 [2]: 7.02 µM
- IC50 [3]: 0.024 µM

SMILES: Cc1cc(-c2[nH]c3ccc(C4CCC(N(C)CC(=O)N(C)C)CC4)cc3c2C(C)C)cn2ncnc12 (single isomer, unassigned) [Example 178, 2-((4-(3-isopropyl-2-(8-methyl-[1,2,4]triazolo[1,5-a]pyridin-6-yl)-1H-indol-5-yl)cyclohexyl)(methyl)amino)-N,N-dimethylacetamide]
- IC50 [1]: 0.00023 µM
- IC50 [2]: 1.78 µM
- IC50 [3]: 0.0024 µM

SMILES: CNC(=O)CNC1CCC(c2ccc3[nH]c(-c4cc(C)nc(C)c4)c(C(C)C)c3c2)CC1 (single isomer, unassigned) [Example 179, 2-((4-(2-(2,6-dimethylpyridin-4-yl)-3-isopropyl-1H-indol-5-yl)cyclohexyl)amino)-N-methylacetamide]
- IC50 [1]: 0.002 µM
- IC50 [2]: 0.767 µM
- IC50 [3]: 0.0035 µM

Reference: patent US11878975B2, “Substituted indole compounds useful as TLR inhibitors” (BRISTOL-MYERS SQUIBB COMPANY, priority 2017, dated 2024)
